Several values for one entry are separate records, joined by “and”; a condition that tells them apart may be missing. Equal values may be shown once. Entries after “also recorded” stand apart in the source; their conditions may differ.
Key:
PDAPP transgenic mouse = PDAPP transgenic mouse efficacy studies (titer needed to lessen neuropathological progression); format: in vivo
Description: At present, the anti-AN1792 titer necessary to achieve a beneficial therapeutic effect in human AD is unknown. Whereas the PDAPP (platelet-derived growth factor-driven amyloid precursor protein) transgenic mouse develops several AD-like neuropathologies, the progression of pathology in this model may very well take a more aggressive course than in human AD, as the changes occur in months and the expression levels APP/Aβ are several fold higher than in nontransgenic species.

[1] = Phase I human trials of AN1792 (safety, tolerability, antibody responsiveness); format: in vivo; details: Phase I study
Description: The U.K. trial enrolled about 80 patients and the U.S. trial enrolled about 24 patients with mild to moderate AD for the Phase I trials. […] Four of the participants developed signs of meningoencephalitis at an early phase of the clinical trial, and the trial was suspended. […] At the time the treatments were discontinued, the maximum number of immunization received was three (by 24 patients), with the majority of patients receiving two immunizations (274 patients) and two patients receiving one immunization. Ultimately, meningoencephalitis was reported in 18 of 300 immunized patients (Orgogozo (2003) supra).
Predictors of response were sought because the incidence of antibody responsiveness in the Phase I study was relatively low (48%), an incidence that would have more than doubled the number of patients required in a Phase II evaluation of efficacy (as measured by cognitive function) associated with anti-AN1792 antibody response. […] Consequently, blood samples were obtained from 123 treated U.S. patients (five of which developed meningoencephalitis) and 30 patients in the placebo group. Simultaneous analysis of the expression levels of approximately 22,000 sequences in each preimmune blood sample obtained from all consenting subjects was performed using the Affymetrix U133A GeneChip®. […]

[2] = Phase IIa placebo-controlled trial of AN1792 with QS-21 adjuvant: meningoencephalitis and follow-up; format: in vivo, human; details: for Meningoencephalitis patients: number of samples in pharmacogenomic study
Description: The U.K. trial enrolled about 80 patients and the U.S. trial enrolled about 24 patients with mild to moderate AD for the Phase I trials.
Antibody responders were compared to placebo controls. […] Whole-trial analysis remains ongoing (Gilman, supra).
A total of 372 patients, 172 from the U.S. and 200 from the E.U., were enrolled in the clinical trial. […] Consent was obtained after approval by local institutional review boards.

AN1792 = assay: Postimmunization maximum anti-AN1792 IgG and IgM titer / response group of treated patients; format: in vivo, human
Description: Relevant clinical data received from StatProbe, Inc. (Ann Arbor, Mich.) (pertaining to treatment group, maximum IgG titer for all visits, maximum IgM titer for all visits, ApoE4 type, and encephalitis status), along with demographic data and treatment group, were merged with the gene expression data by donor identification number (the randomization number that was assigned to each patient in the study).
The pharmacogenomic supplemental statistical analysis plan of this Example 1 defines IgG responders as having a maximum titer≧2200 at any time point. The maximum titer of partial IgG responders was >200<2200, and of nonresponders was ≦200. Patients with an IgM titer>100 at any time point are defined as IgM responders.
(Data from patients with maximum titers between 200 and 2200 were not used in the identification of statistically significant associations, but were analyzed once the statistical programs had identified genes of interest.)
Relevant clinical data pertaining to treatment group, maximum IgG titer for all visits, maximum IgM titer for all visits, encephalitis status, and demographic data were received from StatProbe, Inc. (Ann Arbor, Mich.). The clinical data were merged with the gene expression data by donor identification number.
Subjects were assigned to response groups based on postimmunization maximum titer during follow-up. For both IgM and IgG the response groups were: 1) nonresponders, (titer<200); 2) partial responders (200≦titer<2,200); and 3) responders (titer≧2200).

PBMCs = assay: Gene expression frequency (Affymetrix U133A) in PBMCs cultured overnight with AN1792 and immune adjuvant cocktail; association with encephalitis, IgG, IgM response, ApoE4 by ANOVA and GeneCluster; ratio to control culture; format: cell-based, human; details: 13 genes of Table 17, PBMCs cultured overnight, AN1792 10 μg/ml
Description: Consent to the pharmacogenomic study was optional and obtained after approval by local institutional review boards in the U.S. (E.U. patients were not included in the pharmacogenomic study). Blood was collected from patients in the U.S. at the screening visit and was shipped overnight at room temperature to the Pharmacogenomic Laboratory in Andover, Mass. For each sample, the peripheral blood mononuclear cell (PBMC) fraction was purified by CPT fractionation, as described below, and 2×10^6 of these cells (the baseline sample, i.e., the first daughter sample for baseline measurements) were snap frozen; these represent cells that were not subject to in vitro culture (see. Example 1.1.3.1). The remaining cells were divided into four equal aliquots and cultured in vitro overnight in conditions described below. Cells were then harvested and snap frozen. […] The hypothesis behind this reasoning was that immunotherapeutic responsiveness may reflect a state of “preexisting readiness” to respond to AN1792, and this state may be reflected in the gene expression profile of PBMCs prior to immunotherapy. Accordingly, both AN1792-stimulated and control cultures were set up for each sample. Total RNA was purified from each sample, and RNA expression levels of each of 22,000 sequences were assayed, as described below. […]

[3] = tested on: transgenic mouse models of cognitive impairment and amyloid plaque-associated CNS pathology; details: cited from earlier work
[4] = cited from earlier work
[5] = cited from earlier work; remark: listed apart in the source
[6] = rabbit, single IM injection, tritium-labeled QS-21; cited from earlier work
[7] = tested on: B and T cell effector function; details: QS-21 adjuvanted immunotherapeutics in mice, rabbits and monkeys; cited from earlier work
[8] = cited from earlier work; remark: listed apart in the source
[9] = individual AN1792-treated patients with r^2 outlier samples (33, 22, 316, 765)
[10] = individual treated patients with post-CPT neutrophils >20%, one line per patient (17, 23, 36, 44, 271, 756), listed as Immunotherapy
[11] = number of samples in pharmacogenomic study, Female, of 57 treated
[12] = number of samples in pharmacogenomic study, Male, of 66 treated
[13] = number of samples in pharmacogenomic study, Total, of 123 treated
[14] = immunization with AN1792, transgenic mice

AN1792: a peptide immunogen consisting of Aβ1-42, the section of amyloid recognized as a major component of AD-related plaques
lowest titers that resulted in lessening of neuropathological progression (PDAPP transgenic mouse): 1-2,000 | incidence of antibody responsiveness [1]: 48% | number of patients who developed meningoencephalitis ([2]; E.U. patients): 12 | number of patients who developed meningoencephalitis ([2]; U.S. patients): 6 | Meningoencephalitis patients ([2]; Female): 5 | Meningoencephalitis patients ([2]; Total): 5 | IgG response group (AN1792; [9]): Nonresponder (of nonresponders was ≦200); also recorded: IgG responder (IgG responders as having a maximum titer≧2200 at any time point) | IgM response group (AN1792; [9]): IgM responder (maximum IgM titer>100 (responders)); also recorded: Nonresponder (maximum IgM titer<100 (nonresponders)) | Maximum IgG Titer (AN1792; [10]): 50 (3×) and 4111 and 126 and 172 | Maximum IgM Titer (AN1792; [10]): 13275 and 957 and 28554 | Treated IgG nonresponders (AN1792; [11]): 28 | Treated IgG partial responders (AN1792; [11]): 16 | Treated IgG responders (AN1792; [11]): 13 | Treated IgM nonresponders (AN1792; [11]): 16 | Treated IgM partial responders (AN1792; [11]): 21 | Treated IgG nonresponders (AN1792; [12]): 42 | Treated IgG partial responders (AN1792; [12]): 12 | Treated IgG responders (AN1792; [12]): 12 | Treated IgM nonresponders (AN1792; [12]): 28 | Treated IgM partial responders (AN1792; [12]): 18 | Treated IgG nonresponders (AN1792; [13]): 70 | Treated IgG partial responders (AN1792; [13]): 28 | Treated IgM nonresponders (AN1792; [13]): 44 | Treated IgM partial responders (AN1792; [13]): 39 | Treated IgM responders (AN1792; [13]): 40 | incidence of responsiveness (IgG titer>200), patients of treated patients (AN1792; treated U.S. patients of the pharmacogenomic study, Example 2): 53 of 123 | effect of AN1792 stimulation on gene expression frequency (AN1792-stimulated versus control culture) (PBMCs): decrease in gene expression frequency | cognitive function [3, 14]: improved cognitive function | development of AD-like amyloid plaques, neuritic dystrophy, and gliosis [3, 14]: inhibited the development of AD-like amyloid plaques, neuritic dystrophy, and gliosis | performance in memory tests ([3]; mice treated with AN1792 versus placebo): improved performance in memory tests | development of amyloid antibodies ([4]; Phase I trials, mild to moderate AD): a portion of the participants developed amyloid antibodies | tolerability in human recipients ([4]; in vivo): well tolerated | CSF tau levels and battery of neuropsychological tests ([5]; antibody responders compared to placebo controls, follow-up): gave results favoring patients with a positive IgG titer | meningoencephalitis reported, patients of immunized patients ([5]; in vivo): 18 of 300 | β-amyloid plaques in brain at autopsy ([5]; one participant who died of causes unrelated to treatment): significant areas of the brain lacked the β-amyloid plaques

QS-21
distribution [6]: highly concentrated in the lymph nodes draining the injection area | excretion [6]: Excretion occurs primarily through the kidneys | effect on immune effector function [7]: improvement in B and T cell effector function | white blood cell counts and creatinine kinase ([8]; rabbit toxicity studies): Slight alterations in white blood cell counts (leukocytosis and leukopenia) and creatinine kinase | organ toxicity ([8]; rabbit, single or multiple injections, QS-21 alone or combined with antigens): no significant organ toxicity

Source: patent publication US20060073496A1, “Methods of identifying patients at risk of developing encephalitis following immunotherapy for Alzheimer's disease” (priority 2004, published 2006)
